{
  "source": "BigSolDB 2.1",
  "data": [
    {"smiles": "CCCCCCCCCCCC(=O)O", "values": [
      {"measurement": "solubility (mole fraction)", "setting": "in ethanol, 276.17 K", "value": 0.0422},
      {"measurement": "solubility (mole fraction)", "setting": "in ethanol, 279.16 K", "value": 0.0554},
      {"measurement": "solubility (mole fraction)", "setting": "in ethanol, 282.16 K", "value": 0.0739},
      {"measurement": "solubility (mole fraction)", "setting": "in ethanol, 285.15 K", "value": 0.0924},
      {"measurement": "solubility (mole fraction)", "setting": "in ethanol, 288.15 K", "value": 0.119},
      {"measurement": "solubility (mole fraction)", "setting": "in ethanol, 291.14 K", "value": 0.151},
      {"measurement": "solubility (mole fraction)", "setting": "in ethanol, 294.14 K", "value": 0.194},
      {"measurement": "solubility (mole fraction)", "setting": "in ethanol, 297.13 K", "value": 0.244},
      {"measurement": "solubility (mole fraction)", "setting": "in ethanol, 300.13 K", "value": 0.305},
      {"measurement": "solubility (mole fraction)", "setting": "in ethanol, 303.12 K", "value": 0.386},
      {"measurement": "solubility (mole fraction)", "setting": "in ethanol, 306.12 K", "value": 0.482},
      {"measurement": "solubility (mole fraction)", "setting": "in isobutanol, 276.17 K", "value": 0.0659},
      {"measurement": "solubility (mole fraction)", "setting": "in isobutanol, 279.16 K", "value": 0.0817},
      {"measurement": "solubility (mole fraction)", "setting": "in isobutanol, 282.16 K", "value": 0.102},
      {"measurement": "solubility (mole fraction)", "setting": "in isobutanol, 285.15 K", "value": 0.128},
      {"measurement": "solubility (mole fraction)", "setting": "in isobutanol, 288.15 K", "value": 0.158},
      {"measurement": "solubility (mole fraction)", "setting": "in isobutanol, 291.14 K", "value": 0.195},
      {"measurement": "solubility (mole fraction)", "setting": "in isobutanol, 294.14 K", "value": 0.238},
      {"measurement": "solubility (mole fraction)", "setting": "in isobutanol, 297.13 K", "value": 0.289},
      {"measurement": "solubility (mole fraction)", "setting": "in isobutanol, 300.13 K", "value": 0.351},
      {"measurement": "solubility (mole fraction)", "setting": "in isobutanol, 303.12 K", "value": 0.422},
      {"measurement": "solubility (mole fraction)", "setting": "in isobutanol, 306.12 K", "value": 0.514},
      {"measurement": "solubility (mole fraction)", "setting": "in isopentanol, 276.17 K", "value": 0.0814},
      {"measurement": "solubility (mole fraction)", "setting": "in isopentanol, 279.16 K", "value": 0.1},
      {"measurement": "solubility (mole fraction)", "setting": "in isopentanol, 282.16 K", "value": 0.122},
      {"measurement": "solubility (mole fraction)", "setting": "in isopentanol, 285.15 K", "value": 0.15},
      {"measurement": "solubility (mole fraction)", "setting": "in isopentanol, 288.15 K", "value": 0.179},
      {"measurement": "solubility (mole fraction)", "setting": "in isopentanol, 291.14 K", "value": 0.217},
      {"measurement": "solubility (mole fraction)", "setting": "in isopentanol, 294.14 K", "value": 0.263},
      {"measurement": "solubility (mole fraction)", "setting": "in isopentanol, 297.13 K", "value": 0.315},
      {"measurement": "solubility (mole fraction)", "setting": "in isopentanol, 300.13 K", "value": 0.376},
      {"measurement": "solubility (mole fraction)", "setting": "in isopentanol, 303.12 K", "value": 0.446},
      {"measurement": "solubility (mole fraction)", "setting": "in isopentanol, 306.12 K", "value": 0.537},
      {"measurement": "solubility (mole fraction)", "setting": "in methanol, 276.17 K", "value": 0.0318},
      {"measurement": "solubility (mole fraction)", "setting": "in methanol, 279.16 K", "value": 0.0419},
      {"measurement": "solubility (mole fraction)", "setting": "in methanol, 282.16 K", "value": 0.0555},
      {"measurement": "solubility (mole fraction)", "setting": "in methanol, 285.15 K", "value": 0.0723},
      {"measurement": "solubility (mole fraction)", "setting": "in methanol, 288.15 K", "value": 0.0942},
      {"measurement": "solubility (mole fraction)", "setting": "in methanol, 291.14 K", "value": 0.123},
      {"measurement": "solubility (mole fraction)", "setting": "in methanol, 294.14 K", "value": 0.161},
      {"measurement": "solubility (mole fraction)", "setting": "in methanol, 297.13 K", "value": 0.208},
      {"measurement": "solubility (mole fraction)", "setting": "in methanol, 300.13 K", "value": 0.264},
      {"measurement": "solubility (mole fraction)", "setting": "in methanol, 303.12 K", "value": 0.341},
      {"measurement": "solubility (mole fraction)", "setting": "in methanol, 306.12 K", "value": 0.433},
      {"measurement": "solubility (mole fraction)", "setting": "in n-butanol, 276.17 K", "value": 0.0646},
      {"measurement": "solubility (mole fraction)", "setting": "in n-butanol, 279.16 K", "value": 0.0801},
      {"measurement": "solubility (mole fraction)", "setting": "in n-butanol, 282.16 K", "value": 0.0999},
      {"measurement": "solubility (mole fraction)", "setting": "in n-butanol, 285.15 K", "value": 0.123},
      {"measurement": "solubility (mole fraction)", "setting": "in n-butanol, 288.15 K", "value": 0.151},
      {"measurement": "solubility (mole fraction)", "setting": "in n-butanol, 291.14 K", "value": 0.188},
      {"measurement": "solubility (mole fraction)", "setting": "in n-butanol, 294.14 K", "value": 0.229},
      {"measurement": "solubility (mole fraction)", "setting": "in n-butanol, 297.13 K", "value": 0.283},
      {"measurement": "solubility (mole fraction)", "setting": "in n-butanol, 300.13 K", "value": 0.338},
      {"measurement": "solubility (mole fraction)", "setting": "in n-butanol, 303.12 K", "value": 0.418},
      {"measurement": "solubility (mole fraction)", "setting": "in n-butanol, 306.12 K", "value": 0.51},
      {"measurement": "solubility (mole fraction)", "setting": "in n-hexanol, 276.17 K", "value": 0.0827},
      {"measurement": "solubility (mole fraction)", "setting": "in n-hexanol, 279.16 K", "value": 0.0991},
      {"measurement": "solubility (mole fraction)", "setting": "in n-hexanol, 282.16 K", "value": 0.122},
      {"measurement": "solubility (mole fraction)", "setting": "in n-hexanol, 285.15 K", "value": 0.151},
      {"measurement": "solubility (mole fraction)", "setting": "in n-hexanol, 288.15 K", "value": 0.183},
      {"measurement": "solubility (mole fraction)", "setting": "in n-hexanol, 291.14 K", "value": 0.22},
      {"measurement": "solubility (mole fraction)", "setting": "in n-hexanol, 294.14 K", "value": 0.266},
      {"measurement": "solubility (mole fraction)", "setting": "in n-hexanol, 297.13 K", "value": 0.322},
      {"measurement": "solubility (mole fraction)", "setting": "in n-hexanol, 300.13 K", "value": 0.39},
      {"measurement": "solubility (mole fraction)", "setting": "in n-hexanol, 303.12 K", "value": 0.464},
      {"measurement": "solubility (mole fraction)", "setting": "in n-hexanol, 306.12 K", "value": 0.549},
      {"measurement": "solubility (mole fraction)", "setting": "in n-pentanol, 276.17 K", "value": 0.0742},
      {"measurement": "solubility (mole fraction)", "setting": "in n-pentanol, 279.16 K", "value": 0.0907},
      {"measurement": "solubility (mole fraction)", "setting": "in n-pentanol, 282.16 K", "value": 0.113},
      {"measurement": "solubility (mole fraction)", "setting": "in n-pentanol, 285.15 K", "value": 0.137},
      {"measurement": "solubility (mole fraction)", "setting": "in n-pentanol, 288.15 K", "value": 0.167},
      {"measurement": "solubility (mole fraction)", "setting": "in n-pentanol, 291.14 K", "value": 0.204},
      {"measurement": "solubility (mole fraction)", "setting": "in n-pentanol, 294.14 K", "value": 0.247},
      {"measurement": "solubility (mole fraction)", "setting": "in n-pentanol, 297.13 K", "value": 0.301},
      {"measurement": "solubility (mole fraction)", "setting": "in n-pentanol, 300.13 K", "value": 0.368},
      {"measurement": "solubility (mole fraction)", "setting": "in n-pentanol, 303.12 K", "value": 0.435},
      {"measurement": "solubility (mole fraction)", "setting": "in n-pentanol, 306.12 K", "value": 0.53},
      {"measurement": "solubility (mole fraction)", "setting": "in n-propanol, 276.17 K", "value": 0.054},
      {"measurement": "solubility (mole fraction)", "setting": "in n-propanol, 279.16 K", "value": 0.0685},
      {"measurement": "solubility (mole fraction)", "setting": "in n-propanol, 282.16 K", "value": 0.0859},
      {"measurement": "solubility (mole fraction)", "setting": "in n-propanol, 285.15 K", "value": 0.108},
      {"measurement": "solubility (mole fraction)", "setting": "in n-propanol, 288.15 K", "value": 0.135},
      {"measurement": "solubility (mole fraction)", "setting": "in n-propanol, 291.14 K", "value": 0.169},
      {"measurement": "solubility (mole fraction)", "setting": "in n-propanol, 294.14 K", "value": 0.21},
      {"measurement": "solubility (mole fraction)", "setting": "in n-propanol, 297.13 K", "value": 0.261},
      {"measurement": "solubility (mole fraction)", "setting": "in n-propanol, 300.13 K", "value": 0.319},
      {"measurement": "solubility (mole fraction)", "setting": "in n-propanol, 303.12 K", "value": 0.399},
      {"measurement": "solubility (mole fraction)", "setting": "in n-propanol, 306.12 K", "value": 0.488}
    ]}
  ]
}
